For `O=C(O)CC1(CCCCCCCCCCCC2(C(=O)O)CC2)CC1`, the melting point was 75.3 to 78.9 °C.
`COc1cc(Nc2c(C#N)cnc3cc(-c4csc(C5OCCO5)c4)ccc23)c(Cl)cc1Cl` gave a melting point of 234 to 236 °C.
`O=C(CCCc1ccccc1)OCCCCCCCCCCCCNCC(O)c1ccccc1` (stereo unspecified) gave a melting point of 73 to 74 °C.
In the case of `Cc1nccn1-c1cccc(C2=Nc3cc(O)c(-c4ccccc4F)cc3NC(=O)C2)c1`, the melting point is reported as > 250 °C.
In the case of `O=C1N(Cc2ccccc2)c2cc(Cl)cc(N3CCNCC3)c2S(=O)(=O)N1Cc1cccc(O)c1`, the melting point is reported as 230 to 231 °C.
For `CC(CCNC(=O)c1ccc(Cl)nc1)n1ccnc1` (stereo unspecified), the melting point was 137 to 139 °C.
In the case of `Nc1ccc(CCc2ccc(Cl)c(Cl)c2)cc1`, the melting point is reported as 68 to 70 °C.
Work on `CC(C)(O/N=C(\C(=O)N[C@@H]1C(=O)N[C@@H]1COC(=O)NC(=O)CCl)c1csc(NC(=O)CCl)n1)C(=O)OCc1ccc([N+](=O)[O-])cc1` (relative stereo) yielded a melting point of 206 to 209 °C.
`Cc1ccc(S(=O)(=O)N(c2ccc(Cl)cc2[N+](=O)[O-])C2CC2)cc1` showed a melting point of 98.5 to 100 °C.
For `CC(C)[C@@H](NC(=O)c1cnc(N2CCC(N3C(=O)OCc4ccccc43)CC2)c(Cl)c1)C(N)=O`, the melting point was 140 to 143 °C.
Compound `COc1cc(C)c(C(=O)c2c(C(F)(F)F)ccnc2Cl)cc1OCc1ccccc1` has a melting point of 116 to 117 °C.
Work on `O=c1ccsc2c1[nH]c1ccccc12` yielded a melting point of 242 to 243 °C.
For `COC(=O)Nc1cn2nc(OCc3cc(OC)c(OC)c(OC)c3)ccc2n1`, the melting point was 213 to 215 °C.
With `Cc1cc(C(=O)O)c(C)c2c1S(=O)(=O)CCC2(C)C` the melting point was 209 °C.
For `CCOC(=O)c1ccc(-c2ncc(-c3ccc(Cl)cc3)s2)cc1`, the melting point was 167 to 168 °C.
For `c1ccc(-c2cnccn2)cc1`, the melting point was 69 to 70 °C.
`CCNC(=O)c1ccc(-c2ccc3nnn(Cc4ccc5ncccc5c4)c3n2)cc1Cl` gave a melting point of 187 to 190 °C.
`O=C(NCc1cccnc1)c1ccc2n1Cc1ccccc1N(C(=O)Cc1ccc(Cl)cc1)C2` gave a melting point of 83 °C.
`CC(=O)NCc1ccc(CN2CCN(c3cccnc3)CC2)cc1` gave a melting point of 139 to 140 °C.
Compound `CC(=O)c1ccc(Nc2ccncc2N)cc1` has a melting point of 165 to 166 °C.
`NC(=O)n1cc(-c2ccc(Oc3ccc(N)cc3)cc2)cn1` gave a melting point of 158 to 160 °C.
Work on `CN(O)C(=O)NC1CCCc2sccc21` (stereo unspecified) yielded a melting point of 98 to 102 °C.
Compound `Clc1ccc(/C=C/c2ccc[nH]2)cc1` has a melting point of 172 °C.
For `COC(c1nnco1)c1ccccc1COc1ccc(Cl)cc1C` (stereo unspecified), the melting point was 68 to 70 °C.
Work on `Cc1cn(C)c2c1N(C(=O)CCBr)c1ccccc1NC2=O` yielded a melting point of 194 to 195 °C.
With `CCc1nc(=O)c2ccccc2n1Cc1ccc(-c2ccccc2C#N)cc1` the melting point was 207 to 208 °C.
Compound `CNc1nc(C)c(-c2ccnc(Nc3cccc(S(=O)(=O)NCCOC)c3)n2)s1` has a melting point of 205 to 206 °C.
For `CC1(C)OCCC2C(C3(O)CCSCC3)C(=O)N21` (stereo unspecified), the melting point was 133 to 134 °C.
For `Cc1ccc2c(=O)c3c(oc2c1)CCC(C#N)C3` (stereo unspecified), the melting point was 176 to 178 °C.
For `N#Cc1c(N2CCCSCC2)cc[nH]c1=S`, the melting point was 265 to 270 °C.
`CCc1cc2c(-c3ccccc3Cl)c(NC(=O)Nc3ccc(F)cc3F)cnc2s1` showed a melting point of 217 to 218 °C.
Work on `Cc1oc(-c2ccccc2)nc1COc1ccc(COc2nn(C)cc2CC(=O)O)cn1` yielded a melting point of 139 to 140 °C.
`O=C(NCCC1CC1)c1ccnc(N2CCN(Cc3ccc(F)cc3)C2=O)c1` showed a melting point of 123 to 125 °C.
`CC(=Cc1ccc(N(C)C)cc1Br)[N+](=O)[O-]` showed a melting point of 102 to 103 °C.
With `Cc1c2ccccc2c(C(=O)O)c2c(C(=O)O)cccc12` the melting point was 275 to 280 °C.
`COc1ccc2c(CC#N)c[nH]c2c1` showed a melting point of 100 °C.
With `OC(CCCN1CCC(O)(c2ccc(Cl)cc2)CC1)c1ccc(F)cc1` (stereo unspecified) the melting point was 128 to 130 °C.
With `O=C(O)c1cn(C2CC2)c2cc(F)c(F)cc2c1=O` the melting point was 288 to 290 °C.
For `NC(=O)c1ccc(-c2ccc3ncn(Cc4ccc5ncccc5c4)c3n2)cc1Cl`, the melting point was 212 to 214 °C.
For `COc1cc(NCCCCCCCl)c2nccc(C)c2c1`, the melting point was 66 °C.
In the case of `O=C(O)c1cccc(Cn2cc(C3c4ccccc4C=Cc4ccccc43)c(=S)[nH]c2=O)c1`, the melting point is reported as > 230 °C.
For `CCCc1nc2c(N)nc(C)c(C)c2n1CCCO/N=C(\C)c1ccccc1`, the melting point was 125 to 127 °C.
Compound `OC(CNC12N=CN=CC1=NC=N2)CN1CCN(C(c2ccc(F)cc2)c2ccc(F)cc2)CC1` (stereo unspecified) has a melting point of 140 to 170 °C.
For `Oc1cc(O)nc(-c2ccc(Cl)cc2)n1`, the melting point was 333 °C.
In the case of `COC(=O)c1ccc(-c2nc(COc3ccc(COc4nn(-c5ccccc5)cc4C=O)cc3OC)c(C)o2)cc1`, the melting point is reported as 190 to 191 °C.
Compound `Cn1nnnc1-c1cn(C)c2cc(Br)ccc2c1=O` has a melting point of 292 to 294 °C.
For `CCOC(=O)C1=C(/C=C/N(C)C)C(CC)(C(=O)N(CC)CC)OC1=O` (stereo unspecified), the melting point was 105 °C.
For `CCCCCCCCCCCCc1ccc(S(=O)(=O)Nc2nnc(CO)s2)cc1`, the melting point was 138 to 139 °C.
For `COc1cc2c(cc1OC)CN(CCCCNC(=O)c1cc(I)ccc1OCCF)CC2`, the melting point was 121 to 123 °C.
Compound `CCOC(=O)C(=CNc1nnc(C)s1)C(=O)c1cc(F)c(F)cc1F` has a melting point of 147 to 151 °C.
Work on `COc1ccc(N2CCN(Cc3n[nH]c4c(Cl)cccc34)CC2)cc1` yielded a melting point of 190 to 191 °C.
Compound `Cc1oc(C2(C)CC=CCC2)nc1CC(=O)O` (stereo unspecified) has a melting point of 144 to 145 °C.
Compound `CC(C)(C)CCCOC1CCC2C3CC=C4CC(O[Si](C)(C)C(C)(C)C)CCC4(C)C3CCC12C` (stereo unspecified) has a melting point of 138 to 139 °C.
With `COc1ccc(NC(=O)c2nnn(Cc3ccc(F)cc3)c2C)cc1OC` the melting point was 120 °C.
Work on `O=C(OC1CCN(Cc2ccccc2)CC1)c1ccc(I)cc1` yielded a melting point of 77 to 78 °C.
`O=C(NCCCCCCO)OCc1ccccc1` gave a melting point of 67 to 68 °C.
`O=[N+]([O-])c1ccc(SSc2nc3ccccc3s2)c(C(Cl)(Cl)Cl)c1` gave a melting point of 97 °C.
`Cc1cc(-c2nc3cccnn3c2-c2ccnc(NC(=O)NC3CCC(O)CC3)c2)ccc1F` (stereo unspecified) gave a melting point of 218 to 220 °C.
Compound `O=C(O)Cc1ccc(-n2cccn2)c(Br)c1` has a melting point of 100 to 101 °C.
For `CC(=O)OC1CSC(Oc2cc(Br)cnc2F)C(OC(C)=O)C1OC(C)=O` (stereo unspecified), the melting point was 120 to 122 °C.
For `CC1(C)CC(=O)Nc2ccc(-c3cccc(Cl)c3)cc21`, the melting point was 211 to 215 °C.
`CCCNC(=N)Nc1nc2ccc(OC(F)(F)F)cc2s1` showed a melting point of 110 to 111 °C.
`C[C@@H]1CCN(C(=O)CC#N)C[C@@H]1N(C)c1ncnc2sccc12` showed a melting point of 74.3 °C.
`COc1ccc2c(=O)n3c(cc2c1)S(=O)(=O)CCC3` gave a melting point of 256 to 257 °C.
In the case of `O=C(CCl)Nc1ccccc1C1C=CCC1` (stereo unspecified), the melting point is reported as 101 to 102 °C.
In the case of `CCS(=O)c1cccc(-c2nc(=O)c3ccccc3s2)n1` (stereo unspecified), the melting point is reported as 182 °C.
For `CS(=O)(=O)Nc1ccc(OCC2CCN(c3ccncc3)CC2)cc1`, the melting point was 214 to 215 °C.
Work on `CCOC(=O)c1cc2c(=O)ccoc2nc1C(=O)OCC` yielded a melting point of 71 to 72 °C.
Work on `CC(C)(C)NC(=O)Nc1nc2nc(NCCCN3CCOCC3)ncc2cc1-c1c(Cl)cccc1Cl` yielded a melting point of 236 to 240 °C.
`O=C1NC(C(=O)NCCO[N+](=O)[O-])C(Cc2ccccc2)S1` (stereo unspecified) showed a melting point of 123 to 124 °C.
`Clc1ccc(C(N=C2NCCN2)c2ccccc2)cc1` (stereo unspecified) gave a melting point of 187 to 189 °C.
For `COc1ccc(Cl)cc1C1C(=O)Nc2cc(C(F)(F)F)ccc21` (stereo unspecified), the melting point was 210 to 213 °C.
Compound `C1=C(c2ccc3c(c2)OCCO3)CCN(CCc2cccc3ccccc23)C1` has a melting point of 170 to 180 °C.
For `O=C1NC(=O)c2c1c(-c1cc([N+](=O)[O-])cc([N+](=O)[O-])c1)cc1[nH]c3ccc(O)cc3c21`, the melting point was > 330 °C.
With `O=[N+]([O-])c1ccc(CCCNCCO)cc1` the melting point was 82.5 to 84.5 °C.
Work on `CCOc1cc(OCCCc2cn(-c3ccc(C(F)(F)F)cn3)nc2OCC)ccc1CCC(=O)O` yielded a melting point of 96 to 97 °C.
In the case of `CCc1c(C)c(NC(=O)CC(C)(C)C)c(C)c2c1S(=O)CC2c1ccc(C(C)C)cc1` (stereo unspecified), the melting point is reported as 195 to 196 °C.
With `Oc1ccc(CN[C@H]2CC[C@@H](C(c3ccccc3)c3ccccc3)OC2)cc1` (relative stereo) the melting point was 136 to 138 °C.
`Nc1ccccc1-c1nc2cccnc2o1` showed a melting point of 142 to 144 °C.
For `O=C1Nc2cc(-c3ccccc3)ccc2OC1CCO` (stereo unspecified), the melting point was 170 to 171 °C.
With `COc1cc(OC)c2c(=O)[nH]c(-c3ccc(OCCNC(C)C)c(-c4ccc(S(C)(=O)=O)cc4)n3)nc2c1` the melting point was 114 to 116 °C.
With `COC(=O)CC1CC(c2ccc(C#N)cn2)=NO1` (stereo unspecified) the melting point was 97 to 98 °C.
In the case of `CCCCCCn1nnc(NC(=O)Nc2c(C(C)C)cccc2C(C)C)n1`, the melting point is reported as 154 to 156 °C.
With `O=c1[nH]c2cc(-c3cn4ccccc4n3)ccc2s1` the melting point was > 270 °C.
For `O=C(O)/C=C/c1ccc(N2CCCC2)cc1`, the melting point was 265 °C.
With `COc1ccccc1OC(=O)C(=O)Oc1ccccc1OC` the melting point was 123 to 126 °C.
`COC(=O)c1ncc(Cl)nc1Cl` showed a melting point of 60 to 63 °C.
Compound `O=S(=O)(NCc1ccc(O)cc1)c1ccc(Cl)cc1` has a melting point of 187 to 189 °C.
In the case of `O=C(O)c1cccc(CN2C(=O)N(c3ccccc3Br)Cc3cnc(Nc4ccccc4)nc32)c1`, the melting point is reported as 180 to 183 °C.
`CCc1cc(Oc2ccc(NC(=O)Nc3ccc(C)cc3)cc2)ncn1` showed a melting point of 160 to 162 °C.
In the case of `C#Cc1cccc(Nc2ncnc3ccc(S(=O)(=O)n4ccc(C=CC(=O)OCC)c4)cc23)c1`, the melting point is reported as 154 to 156 °C.
With `COC(=O)CNS(=O)(=O)c1ccc(CCN2CC=C(c3c[nH]c(-c4ccc(F)cc4)c3-c3ccncc3)CC2)cc1` the melting point was 220 to 223 °C.
Work on `O=C1[C@@H]2C[C@H](Oc3ccc(Br)cc3)CN2C(=O)N1c1cc(Cl)cc(Cl)c1` yielded a melting point of 116 °C.
In the case of `CCCc1nc2c(N)nc3cccnc3c2n1CC1(O)CCCCC1`, the melting point is reported as 209 to 211 °C.
With `COC(=O)C(Cc1ccc(OS(=O)(=O)C(F)(F)F)cc1)NC(=O)OCc1ccccc1` (stereo unspecified) the melting point was 70 to 73 °C.
With `CC(C)(O)CCCc1onc(-c2ccccc2)c1-c1ccc(S(N)(=O)=O)cc1` the melting point was 184 to 185 °C.
Work on `O=C1CCc2c([nH]c3ccc(Cl)cc23)C1` yielded a melting point of 194 to 196 °C.
Work on `O=C(CN1CCC(Cc2ccc(F)cc2)CC1)Nc1ccc2[nH]ncc2c1` yielded a melting point of 149 to 152 °C.
For `CC(C)(C)n1nnc(Cc2ccc(CCC(=O)O)cc2)n1`, the melting point was 139 to 141 °C.
Compound `CCOC(=O)c1cc2cc(-c3ccc(Cl)cc3)ccc2o1` has a melting point of 108 to 110 °C.
In the case of `COc1cc(CO)ncc1C`, the melting point is reported as 102 to 104 °C.
